Experimental data as given in US7643943B2, “Methods for monitoring drug activities in vivo” (Wyeth LLC, priority 2003, dated 2010).

How the values were obtained:
clinical [1] = settings: human, in vivo, iv
From the text: The pharmacokinetics of CCI-779 is being studied in patients with cancer receiving CCI-779 either alone or in combination with other chemotherapeutic agents following intravenous administration. Intravenous dosage schedules previously investigated include a cyclical schedule (daily for 5 days every two weeks) and a once-weekly regimen. […] The following examples evaluated the safety, efficacy, and pharmacokinetic/pharmacodynamic relationship to clinical response of three doses of CCI-779, when administered to patients with advanced, refractory renal cell cancer (RCC).

[2] = human, in vivo
Method: (§1) In a randomized, double-blind, multicenter trial, once-weekly intravenous doses of 25-, 75-, or 250-mg of CCI-779 were administered to patients with advanced renal cancer that were either previously treated, or untreated and not appropriate candidates for high dose interlukin-2 therapy. Whole blood for CCI-779 and metabolite concentrations was drawn for population pharmacokinetic analysis, and Bayesian-predicted area under the concentration-time curves for parent drug (AUC), parent plus metabolite (AUCsum), and cumulative AUC and AUCsum were derived.
(§2) For CCI-779 clearance, factors for dose, attenuation of exposure with multiple-dose, and effect of body surface area were included.
(§3) The following examples were based on a randomized, double-blind, multicenter, outpatient phase 2 study of CCI-779 administered by 30 minute intravenous infusion (via an automatic dispensing pump) in patients with advanced RCC. Eligible patients were randomly assigned to treatment in a 1:1:1 ratio to receive 25 mg, 75 mg, or 250 mg of CCI-779 weekly until evidence of disease progression.
(§4) Full pharmacokinetic profiling was planned in a subset of patients, with remaining patients to provide sparse sampling.
(§5) The bioanalytical method for CCI-779 was performed using whole blood in a liquid chromatography/tandem mass spectrometry (LC/MS/MS) procedure with deuterated internal standard.
(§6) In order to characterize the pharmacokinetic profiles of patients providing sparse blood sampling, fully and sparsely sampled patient data were analyzed collectively using a population pharmacokinetic method and the NONMEM application (version 1.0, Revision 5.0 on Windows NT 4.0 computer with Pentium processor, NONMEM Project Group, University of California at San Francisco, Calif.). […] Data were therefore modeled separately and segregated by analyte into two separate data sets with dose, time/duration of administration, and demographic information. […] Construction of the NONMEM infile was performed using SAS (version 8.1) on a Sun Microsystems mainframe computer with Sun OS 5.8. […] In both cases, the model-derived value for AUC for a given patient and analyte were obtained from the quotient of CCI-779 Dose/Clearance (CL), in which CL was obtained from Bayesian estimation and the POSTHOC option of NONMEM.
(§7) During model building, an exponential error model was applied to the kinetic model.

clinical [3] = settings: human, in vivo
Method: as §1, §2, §3, §4, §5, §6, §7
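Wherever DE on CL (θ6), parameter estimate is given: population pharmacokinetic analysis in NONMEM of pooled full and sparse blood sampling from patients, exponential error on kinetic parameters, proportional residual error, bootstrap check over 1,000 resamples.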
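Wherever DE on V3 (θ7), parameter estimate is given: population pharmacokinetic analysis in NONMEM of pooled full and sparse blood sampling from patients, exponential error on kinetic parameters, proportional residual error, bootstrap check over 1,000 resamples.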
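Wherever Dose effect on CL (θ7), bootstrap sample median is given: population pharmacokinetic analysis in NONMEM of pooled full and sparse blood sampling from patients, exponential error on kinetic parameters, proportional residual error, bootstrap check over 1,000 resamples.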
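Wherever Dose effect on V3 (θ8), bootstrap sample median is given: population pharmacokinetic analysis in NONMEM of pooled full and sparse blood sampling from patients, exponential error on kinetic parameters, proportional residual error, bootstrap check over 1,000 resamples.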

half-life (clinical [1]): 60 to 70 h
DE on CL (θ6), parameter estimate [2]: 0.422
DE on V3 (θ7), parameter estimate [2]: 0.302
Dose effect on CL (θ7), bootstrap sample median [2]: 0.412
Dose effect on V3 (θ8), bootstrap sample median [2]: 0.231
HCT effect on V3 (θ8), parameter estimate [2]: 0.719
Hematocrit effect on V3 (θ9), bootstrap sample median [2]: 0.768
Inter-Patient Variability % on CL [2]: 63.7%
Inter-Patient Variability % on Ka [2]: 34.6%
Inter-Patient Variability % on V2 [2]: 164%
Inter-Patient Variability % on V3 [2]: 22.8%
Intersubject variability on CL (ω^21), bootstrap sample median [2]: 0.545
Intersubject variability on CL (ω^21), final model parameter estimate [2]: 0.406
Intersubject variability on V2 (ω^22), bootstrap sample median [2]: 1.418
Intersubject variability on V2 (ω^22), final model parameter estimate [2]: 2.72
Intersubject variability on V3 (ω^23), final model parameter estimate [2]: 0.052
Intersubject variability on ka (ω^24), bootstrap sample median [2]: 0.316
Intersubject variability on ka (ω^24), final model parameter estimate [2]: 0.120
Ka (θ5), parameter estimate [2]: 0.087 h⁻¹
Proportional error (ε^2), bootstrap sample median [2]: 0.212
Proportional error (ε^2), final model parameter estimate [2]: 0.0543
Q (θ3), bootstrap sample median [2]: 27.5 L/h
V2 (θ2), bootstrap sample median [2]: 8.24 L
V3 (θ4), bootstrap sample median [2]: 11.6 L
V3 (θ4), parameter estimate [2]: 12.9 L
ka (θ5), bootstrap sample median [2]: 0.0616 h⁻¹
Q (θ3), parameter estimate ([2]; iv): 44.1 L/h
V2 (θ2), parameter estimate ([2]; iv): 10.4 L
CL (θ1), parameter estimate ([2]; iv, 250 mg): 2.05 L/h
clearance (clinical [3]): 33.2 mL/min
SMILES: CO[C@H]1C[C@@H]2CC[C@@H](C)[C@@](O)(O2)C(=O)C(=O)N2CCCC[C@H]2C(=O)O[C@H]([C@H](C)C[C@@H]2CC[C@@H](O)[C@H](OC)C2)CC(=O)[C@H](C)/C=C(\C)[C@@H](O)[C@@H](OC)C(=O)[C@H](C)C[C@H](C)/C=C/C=C/C=C/1C [sirolimus]
